Results: patent publication US4032534A, “Certain 2-(2-thioethyl)thiazolidine-4-carboxylic acids” (Ferlus-Chimie S.A., priority 1973, dated 1977)

What was measured:
mouse = conditions: for DL 50: per os, species not given
[1] = test system: phenylbenzoquinone-induced stretching or twisting movements (writhing syndrome); experiment: Siegmund test (analgesic action; phenylbenzoquinone writhing syndrome); format: in vivo; conditions: mouse, 300 mg/kg PO, 30 minutes before phenylbenzoquinone, protected = less than five stretching movements in 5 minutes
Experimental: Reference: […], E. A.: CADMUS, R. A.: GOLU: "A Method for evaluating both non-narcotic and narcotic Analgesics." Pro. Soc. Exp. Biol., 1957, b, 95, 729-731.
Principle: Injection of an irritant, phenylbenzoquinone (in 0.02% solution), into the peritoneum of a mouse, determination of the stretching or twisting movements (writhing syndrome), whose frequency is diminished by the preventive administration of analgesic.
The substances were given orally 30 minutes before injection of the irritant. The number of stretching movements between the 5th and 10th minute after injection of phenylbenzoquinone were counted. The percentage of animals protected was calculated. A mouse was considered protected if it executed less than five stretching movements in 5 minutes.

[2] = test system: femoral arterial pressure and cardiac contractile force; experiment: Cardiovascular action in a dog anaesthetised with chloralose; format: in vivo
Experimental: This action was studied in a dog, anaesthetised with chloralose, its reflexogenic, cardioaortic and sinocarotidian zones being intact (normotense dog), or denervated (hypertense dog). The product to be tested was injected in the saphena vein, and the femoral arterial pressure and cardiac contractile force were recorded.

in vivo = conditions: mouse, po
[3] = Mucolytic action: measurement of the fluidising action of the bronchial secretion (microviscosimeter of the BROOKFIELD type); conditions: for Percentage diminution of viscosity: 37° C.
Experimental: Mucolytic action: measurement of the fluidising action of the bronchial secretion.
The study of the viscosity of an expectoration is effected in vitro. In order to measure viscosity, a microviscosimeter of the BROOKFIELD type is used. With the aid of this apparatus, the resistant couple exerted on a rotor is determined. This rotor, submerged in the liquid whose viscosity is to be measured, rotates at a known constant speed.
1.5 ml of secretion, taken to ambient temperature, was poured into a container of the viscosimeter. After 4 minutes, the temperature of the expectoration was balanced at 37° C., then the motor of the apparatus was started for 5 minutes, after which measurement was effected.
Three rotor speeds were used:
1.5 r.p.m.; 3 r.p.m., and 6 r.p.m.
The three speeds were used for each test. Firstly, the viscosity of the pure expectoration was measured, then that of the expectoration to which had been added one drop of distilled water as a solvent, and whose retained values were later used as witness values, or placebo values.
Thereafter, 1.5 ml of secretion had added to it a drop of the product at the first aqueous concentration envisaged.
The viscosity was measured at the three rotary speeds of the rotor. The same operation was repeated at the following concentrations; 1 mg/ml; 2 mg/ml and 5 mg/ml.
The reference substance was mercapto-ethane sulfonate of sodium or MISTABRON (M.E.S. Na). This substance had been studied under the same experimental conditions at a concentration of 200 mg/ml.

Which “Acute Toxicity mouse PO” value (mouse) does the source give for `O=C(O)CSCCC1NC(C(=O)O)CS1` (stereo not shown) [Compound No. 5, 4-carboxy thiazolidinyl 2-ethyl mercapto acetate of di(diisopropylamine)] here?
Its value is > 1200 mg/kg.

And the “DL 50” value (mouse)?
The value was > 1200 mg/kg.

What about the “% of animals protected” value ([1]; 300 mg/kg) of the same compound?
Its value is 20%.

What about the “antihypertensive and hypotensive action (in words)” value ([2]; intravenous, 10 mg/kg) of the same compound?
The value was “antihypertensive and hypotensive”.

For `O=C(O)CSCCC1NC(C(=O)O)CS1` (stereo not shown) [Compound No. 4, 4-carboxy-thiazolidinyl-2-ethyl mercapto acetic acid], which “% of animals protected” value ([1]; 300 mg/kg) is on record?
Its value is 40%.

And the LD50 (in vivo)?
Its LD50 is > 1200 mg/kg.

For `O=C(O)C1CSC(CCSc2nc3ncccc3o2)N1` (stereo not shown) [compound 11, 2-(2-pyridoxazolyl-2-thioethyl)thiazolidine 4-carboxylic acid], which “% of animals protected” value [1] is on record?
The value was 20%.

And the LD50 (in vivo)?
Its LD50 is > 1200 mg/kg.

What does the source list for `CCOC(=O)CSCCC1NC(C(=O)O)CS1` (stereo not shown) [Compound No. 8, 2-[(Ethoxycarbonylmethylthio)-ethyl] thiazolidine 4-carboxylate of diisopropylamine]?
Percentage diminution of viscosity ([3]; 1 mg/ml, rotor speed V = 1.5 r.p.m.): 58%; Percentage diminution of viscosity ([3]; 1 mg/ml, rotor speed V = 3 r.p.m.): 55%; Percentage diminution of viscosity ([3]; 1 mg/ml, rotor speed V = 6 r.p.m.): 46%; Percentage diminution of viscosity ([3]; 2 mg/ml, rotor speed V = 1.5 r.p.m.): 60%; Percentage diminution of viscosity ([3]; 2 mg/ml, rotor speed V = 3 r.p.m.): 57%; Percentage diminution of viscosity ([3]; 2 mg/ml, rotor speed V = 6 r.p.m.): 47.5%; Percentage diminution of viscosity ([3]; 5 mg/ml, rotor speed V = 1.5 r.p.m.): 71%; Percentage diminution of viscosity ([3]; 5 mg/ml, rotor speed V = 3 r.p.m.): 62%; Percentage diminution of viscosity ([3]; 5 mg/ml, rotor speed V = 6 r.p.m.): 58%; mucolytic action versus reference M.E.S. Na (in words) ([3]; in accordance with the doses used (1, 2, 5 mg/ml vs 200 mg/ml M.E.S. Na)): comparable with and even superior to the reference substance

With `O=C(O)C1CSC(CCSCc2nc3ccccc3[nH]2)N1` (stereo not shown) [Compound No. 10, 2-[2-(benzimidazolylmethyl)-2-thioethyl]-thiazolidine 4-carboxylic acid] as the compound, how does the “DL 50” value (mouse) read?
The value was > 1200 mg/kg.

What about the “cardiostimulant properties (in words)” value ([2]; saphena vein injection, 20 mg/kg) of the same compound?
Its value is “clear cardiostimulant properties”.

Which results are given for `O=C(O)CSCCC1NC(C(=O)O)CS1` (stereo not shown) [compound 6, 4-carboxy thiazolidinyl 2-ethyl mercapto arginine acetate]?
Acute Toxicity mouse PO (mouse): > 1200 mg/kg; % of animals protected ([1]; acetate, 300 mg/kg): 20%

Which results are given for `O=S(=O)(O)CCS` [M.E.S. Na, mercapto-ethane sulfonate of sodium, reference compound]?
Percentage diminution of viscosity ([3]; 200 mg/ml, rotor speed V = 1.5 r.p.m.): 66%; Percentage diminution of viscosity ([3]; 200 mg/ml, rotor speed V = 3 r.p.m.): 65%; Percentage diminution of viscosity ([3]; 200 mg/ml, rotor speed V = 6 r.p.m.): 55%
